Target: Streptavidin (SA) (Streptomyces avidinii, UniProt P22629)
Test: label-free optofluidic microbubble resonator, kinetic kon/koff global Langmuir fit
Format: binding
Conditions: read-out: ka (M)^-1 (converted)
Excerpt: label-free optofluidic microbubble resonator, kinetic kon/koff global Langmuir fit on Streptavidin (SA)

Streptavidin (SA), sequence (P22629 25-183): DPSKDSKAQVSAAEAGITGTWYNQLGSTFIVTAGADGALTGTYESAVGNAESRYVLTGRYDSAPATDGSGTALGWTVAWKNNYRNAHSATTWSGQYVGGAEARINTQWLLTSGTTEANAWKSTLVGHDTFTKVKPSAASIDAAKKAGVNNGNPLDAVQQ

Compound: C=CCc1ccc(O)c(-c2cc(CC=C)ccc2O)c1 [magnolol]
- Kd: 2.13e-11 M
